Laboratory results as given in patent US20080166805A1, “Culturing human cells and tissues in an N-glycolylneuraminic acid-free environment” (The Regents of the University of California, priority 2005, published 2008).

Legend:
Type in all cases: cell-based
[1] = tested on: normal human skin fibroblasts (WT); assay: Neu5Gc/ManNGc feeding experiment, normal human skin fibroblasts; details: normal wild-type (WT) fibroblasts fed 3 mM for 3 days
Method: Cell Culture—Caco-2 cells were propagated in alpha-MEM containing GLUTAMAX™ (Invitrogen, San Diego, Calif.) and a mixture of ribonucleosides and deoxyribonucleosides (Gibco/Invitrogen, San Diego, Calif.) supplemented with 20% FCS. All the fibroblast cell lines and CHO-K1 cells were cultured in the same media supplemented respectively with 15% non-heat inactivated FCS or 10% heat inactivated FCS. Chimpanzee Fred and human […] EBV-transformed lymphoblasts were cultured in RPMI-1640 (Gibco/Invitrogen, San Diego, Calif.) supplemented with 10% heat inactivated FCS or 15% human serum. All of the cultures were maintained at 37° C., 5% CO2 atmosphere. In order to deplete any remaining Neu5Gc from FCS, the cells were split and cultured prior to Neu5Gc feeding experiments for at least 4 days in alpha-MEM supplemented with an adequate percentage of heat-inactivated premium human serum instead of FCS. The cells were then maintained under the same conditions during the whole feeding experiment. The human serum was heat inactivated at 56° C. for 30 min. before use.
Neu5Gc and ManNGc Feeding Experiment—Neu5Ac, Neu5Gc or ManNGc were dried, dissolved in the appropriate media supplemented with heat-inactivated human serum, sterilized using a Spin-X® (Corning Inc., Corning, N.Y.) and then added to the cells. The pH of the media containing Sia was adjusted to neutrality using sterilized 1M NaOH before starting the feeding experiment. Cells were cultured in the presence of up to 3 mM free Sia or ManNGc for 1 or 3 days at 37° C. At the end of the feeding, cells were washed with cold PBS, harvested either by scraping or with 2 mM EDTA for fibroblasts, and washed again with cold PBS prior to fractionation.
Fractionation of the Labeled Cells—Washed cell pellets were sonicated into 500 μL of 20 mM sodium phosphate buffer or 20 mM Tris-HCl, pH 7.5, using 4×15 second pulses of a sonicator cell disrupter, model Some Dismembrator (Fisher Scientific, Hampton, N.J.) at a probe setting of 3. The sonicate was centrifuged at 75×g for 15 min., and the pellet obtained consisted primarily of nuclei and unbroken cells. The pellet contained <5% of the incorporated sialic acid as determined using a radioactive tracer (data not shown.) The supernatant was therefore considered as the “total homogenate” fraction. A portion (20%) of the “total homogenate” fraction was taken for protein quantification and Sia analysis by DMB derivatization and HPLC analysis (as discussed below.) The remainder was centrifuged at 100,000×g for 1 h. The resulting pellet, called the “membrane” fraction, was then resuspended by sonication (15 sec.) in 200 μl of sodium acetate buffer, pH 5.5. The 100,000×g supernatant, called the “soluble” fraction was adjusted to 90% ethanol using absolute ice-cold ethanol, and placed overnight at −20° C. The flocculant precipitate, which represents the “soluble protein” fraction, was washed 3 times with 90% ice-cold ethanol and then resuspended in 200 μl of water. […] All the Sias in these fractions were released with mild acid hydrolysis if necessary and then analyzed by HPLC after DMB derivatization. Protein quantification was performed on the total homogenate, membrane and soluble protein fractions by using the BCA protein assay kit from Pierce (Rockford, Ill.) In some experiments, the resulting data obtained for the Sia bound to the membrane fraction and to the soluble proteins were pooled and presented here as a High Molecular Weight (HMW) fraction. […]

[2] = tested on: lysosomal sialic acid transporter mutant human fibroblasts (GM05520); assay: Neu5Gc/ManNGc feeding, lysosomal sialic acid transporter mutant fibroblasts GM05520; details: GM05520 (ISSD) fibroblasts fed 3 mM for 3 days
Description: (§1) Cell Lines—Caco-2 cells (human epithelial cells isolated from a primary colon carcinoma), normal human skin fibroblasts (CCD-919-SK) and chinese hamster ovary (CHO-K1) cells were purchased from ATCC (Manassas, Va.) Mutant human skin fibroblasts (GM05520, GM08496 and GM01718) were obtained from the Coriell Institute for Medical Research (Camden, N.J.) Chimpanzee Fred and human […] EBV-transformed lymphoblasts were a gift from Dr. Peter Parham, Stanford University, CA. […]
(§2) Fractionation of the Labeled Cells—Washed cell pellets were sonicated into 500 μL of 20 mM sodium phosphate buffer or 20 mM Tris-HCl, pH 7.5, using 4×15 second pulses of a sonicator cell disrupter, model Some Dismembrator (Fisher Scientific, Hampton, N.J.) at a probe setting of 3. […] The pellet contained <5% of the incorporated sialic acid as determined using a radioactive tracer (data not shown.) The supernatant was therefore considered as the “total homogenate” fraction. A portion (20%) of the “total homogenate” fraction was taken for protein quantification and Sia analysis by DMB derivatization and HPLC analysis (as discussed below.) The remainder was centrifuged at 100,000×g for 1 h. […] All the Sias in these fractions were released with mild acid hydrolysis if necessary and then analyzed by HPLC after DMB derivatization. […]

[3] = tested on: lysosomal sialic acid transporter mutant human fibroblasts (GM08496); assay: Neu5Gc/ManNGc feeding, lysosomal sialic acid transporter mutant fibroblasts GM08496; details: GM08496 (Salla disease) fibroblasts fed 3 mM for 3 days
Description: as §1, §2

Which “percent of Neu5Gc incorporation into membrane-bound glycoconjugates” value [1] does the source give for `O=C(CO)N[C@@H]1C(O)O[C@H](CO)[C@@H](O)[C@@H]1O` (stereo partly drawn) [ManNGc, N-glycolylmannosamine] here?
Its value is 19%.

And the “percent of Neu5Gc in membrane-bound glycoconjugates” value [2]?
The value was 18%.

And the “percent of Neu5Gc in membrane-bound glycoconjugates” value [3]?
Its value is 17%.
